Assay results from article PMC8082182 (Frontiers in Pharmacology, 2021).
Read-outs that look alike come from different tables or passages of the source.

How the values were obtained:
[1] = Unified one-compartment population PK model (NONMEM, FOCE with interaction) for Chinese adults and pediatric patients
Text: (§1) The TDM concentration data of therapeutic drugs in adults and pediatric patients with Gram-positive bacterial infection were collected.
(§2) The population pharmacokinetics model was composed of a structural model and random effect models using the first-order conditional estimation method (FOCE) with interaction. Demographic variables (e.g., gender, age, weight, height, body mass index [BMI]), renal function descriptors (serum creatinine, eGFR, creatinine clearance rate [CLCr], and albumin, etc.), and disease conditions (e.g., surgery or injury, chronic kidney disease, diabetes, cancer) were tested as potential covariates. Covariates were evaluated using the stepwise forward-selection method and backward elimination. The population PK model for adults and pediatric patients were evaluated respectively and the model parameters were compared. In order to unify the population PK model for adults and pediatric patients, the datasets were merged and the covariates were consolidated and reevaluated. […] The established population PK model was used to simulate individual PK parameters (Cmin, Cmax, AUC0–24) by Bayesian feedback method for the further PK/PD evaluation.

[2] = for AUC0–24, median (IQR) / Cmax,ss, Median (IQR): Improved patients
Text: as §1, §2

[3] = Pulmonary, Not improved patients, IQR not reported for n < 5

CN[C@H](CC(C)C)C(=O)N[C@H]1C(=O)N[C@@H](CC(N)=O)C(=O)N[C@H]2C(=O)N[C@H]3C(=O)N[C@H](C(=O)N[C@H](C(=O)O)c4cc(O)cc(O)c4-c4cc3ccc4O)[C@H](O)c3ccc(c(Cl)c3)Oc3cc2cc(c3O[C@@H]2O[C@H](CO)[C@@H](O)[C@H](O)[C@H]2O[C@H]2C[C@](C)(N)[C@H](O)[C@H](C)O2)Oc2ccc(cc2Cl)[C@H]1O [vancomycin]
Age effect on V (θ5) ([1]; bootstrap median): 0.331
Body weight effect on V (θ6) ([1]; bootstrap median): 0.347
V (θ2) ([1]; bootstrap median): 44.8 L
CL (θ1) ([1]; bootstrap median, 1,000 times): 3.82 L/h
Age effect on V (θ5) ([1]; final model estimate, exponent): 0.33
Body weight effect on V (θ6) ([1]; final model estimate, exponent): 0.349
V (θ2) ([1]; final model estimate, typical value at AGE 55, WT 58.25): 44.7 L
CL (θ1) ([1]; final model estimate, typical value at CLCr 90.28, WT 58.25, adults and pediatric patients): 3.83 L/h
AUC0–24, median (IQR) ([2]; Bloodstream): 215.9 (172.33, 305.85) hr*mg/L
Cmax,ss, Median (IQR) ([2]; Bloodstream): 23.32 (17.20, 26.57) mg/L
Cmax,ss, Median ([2]; Bloodstream, Not improved patients, IQR not reported for n < 5): 26020 ng/mL
AUC0–24, median (IQR) ([2]; Central nerve system): 303.3 (204.97, 386.18) hr*mg/L
Cmax,ss, Median (IQR) ([2]; Central nerve system): 28.11 (24.75, 30.66) mg/L
Cmax,ss, Median ([2]; Central nerve system, Not improved patients, IQR not reported for n < 5): 21410 ng/mL
Cmax,ss, Median (IQR) ([2]; Endocarditis): 21.50 (17.20, 23.70) mg/L
AUC0–24, median (IQR) ([2]; Overall): 217.5 (172.87, 286.34) hr*mg/L
AUC0–24, median (IQR) ([2]; Pulmonary): 219.2 (183.44, 266.38) hr*mg/L
Cmax,ss, Median (IQR) ([2]; Pulmonary): 20.24 (16.24, 28.07) mg/L
Cmax,ss, Median [2, 3]: 22600 ng/mL
Cmin,ss, Median [2, 3]: 3320 ng/mL
AUC0–24, median (IQR) ([2]; Urinary tract): 196.2 (145.03, 287.92) hr*mg/L
Cmax,ss, Median (IQR) ([2]; Urinary tract): 22.08 (15.80, 25.63) mg/L
Cmax,ss, Median ([2]; Urinary tract, Not improved patients, IQR not reported for n < 5): 29180 ng/mL
